Results on 48 molecules are retold here after patent publication US9296748B2, “Pyridinones” (Boehringer Ingelheim International GmbH, priority 2013, dated 2016).

The IC50 is the concentration at which inhibition is half-maximal.

This assay has as its target BRD4-BD1 (Homo sapiens (Human), UniProt O60885). The assay is described as follows: BRD4-H4 Tetraacetylated Peptide Inhibition AlphaScreen. Particulars: GST-BRD4-BD1 (aa 44-168), biotinylated Acetyl-Histone H4 peptide. The class given is binding. As to the method: Compounds are diluted in serial dilution 1:5 in assay buffer from 10 mM stock in DMSO (100 μM start concentration) in white OptiPlate-384 (PerkinElmer). […] Subsequently, 6 μl of premixed AlphaLISA Glutathione Acceptor Beads and AlphaScreen Streptavidin Donor Beads from PerkinElmer (in assay buffer at a concentration of 10 μg/ml each) are added and the samples are incubated for 30 min at RT in the dark (shaking 300 rpm). Afterwards, the signal is measured in a PerkinElmer Envision HTS Multilabel Reader using the AlphaScreen protocol from PerkinElmer. […] Negative control values are entered as low basis value when using the software GraphPad Prism for calculations. Furthermore, a positive control (probe molecule JQ1+ with protein/peptide mix) is pipetted. Determination of IC50 values are carried out using GraphPad Prism 3.03 software (or updates thereof).
In turn, `Cc1cc(-c2nc3cnc(N4CCN(C)CC4)cc3n2C(C)c2ccccn2)cn(C)c1=O` (stereo not drawn) [II-22] displayed an IC50 of 0.034 µM.

`Cc1cc(-c2nc3cnccc3n2Cc2ccc(Cl)cc2)cn(C)c1=O` [II-23] showed an IC50 of 0.033 µM.

Regarding `Cc1cc(-c2nc3cnc(C(C)C)cc3n2[C@@H](C)c2ccccc2)cn(C)c1=O` [II-24], inhibition was half-maximal at 0.038 µM (IC50).

`Cc1cc(-c2nc3cnc(C4CCOCC4)cc3n2[C@@H](C)c2ccccc2)nn(C)c1=O` [II-25] gave an IC50 of 0.008 µM.

In the case of `Cc1cc(-c2nc3cnc(C4CCOCC4)cc3n2[C@@H](C)c2ccccc2)cn(C)c1=O` [II-26], the IC50 was 0.016 µM.

In turn, `Cc1cc(-c2nc3cnccc3n2Cc2ccc(F)c(F)c2)cn(C)c1=O` [II-27] came in with an IC50 of 0.166 µM.

With `Cc1cc(-c2nc3cnccc3n2Cc2ccccc2F)cn(C)c1=O` [II-28], the IC50 turned out to be 0.128 µM.

With `Cc1cc(-c2nc3cnc(N4CCOC[C@@H]4C)cc3n2[C@@H](C)c2ccccn2)cn(C)c1=O` [II-29], the IC50 turned out to be 0.13 µM.

Regarding `COC[C@H](C)n1c(-c2cc(C)c(=O)n(C)n2)nc2cnc(N3CCOC[C@@H]3C)cc21` [II-30], the IC50 amounted to 0.062 µM.

Take `Cc1cc(-c2nc3cnc(N4CCOC[C@@H]4C)cc3n2[C@@H](C)c2ccccc2)cn(C)c1=O` [II-31]: the IC50 was 0.04 µM.

`Cn1cc(-c2nc3cnc(N4CCOCC4)cc3n2Cc2ccccc2)cc(Cl)c1=O` [II-32] returned an IC50 of 0.105 µM.

`Cc1cc(-c2nc3cnc(C(C)C)cc3n2[C@@H](C)c2ccccn2)cn(C)c1=O` [II-33] displayed an IC50 of 0.169 µM.

Regarding `Cc1cc(-c2nc3cnc(C4CCOCC4)cc3n2[C@@H](C)c2ccccn2)cn(C)c1=O` [II-34], the concentration for half-maximal inhibition (IC50) was 0.12 µM.

The molecule `Cc1cc(-c2nc3cnc(C4=CCOCC4)cc3n2C(C)c2ccccn2)cn(C)c1=O` (stereo not drawn) [II-35] had an IC50 of 0.211 µM.

As for `Cc1cc(-c2nc3cnc(Cl)cc3n2C(C)c2ccccn2)cn(C)c1=O` (stereo not drawn) [II-36], inhibition was half-maximal at 0.65 µM (IC50).

For the molecule `Cc1cc(-c2nc3cnc(N4CCOCC4)cc3n2C(C)c2ccccn2)cn(C)c1=O` (stereo not drawn) [II-37], half-maximal inhibition (IC50) was put at 0.172 µM.

In turn, `Cc1cc(-c2nc3cnc(OC(C)C)cc3n2[C@@H](C)c2ccccn2)cn(C)c1=O` [II-38] gave an IC50 of 0.205 µM.

In turn, `Cc1cc(-c2nc3cnc(OC4CCOC4)cc3n2[C@@H](C)c2ccccn2)cn(C)c1=O` (stereo partly drawn) [II-39] came in with an IC50 of 0.211 µM.

Regarding `Cc1cc(-c2nc3cnc(C4=CCCCO4)cc3n2C(C)c2ccccn2)cn(C)c1=O` (stereo not drawn) [II-40], inhibition was half-maximal at 0.295 µM (IC50). The IC50 values of the last two molecules are within 1.5-fold of each other.

Take `Cc1c(-c2nc3cnc(N4CCN(C)CC4)cc3n2Cc2ccccc2)cn(C)c(=O)c1C` [II-41]: the concentration for half-maximal inhibition (IC50) was determined as 1.2 µM.

`Cc1cc(-c2nc3cnc(N)cc3n2[C@@H](C)c2ccccc2)cn(C)c1=O` [II-42] returned a half-maximal inhibitory concentration (IC50) of 0.035 µM.

`Cc1cc(-c2nc3cnc(N4CCOC[C@@H]4C)cc3n2C(C)CC2CC2)cn(C)c1=O` (stereo partly drawn) [II-43] gave an IC50 of 0.05 µM.

In turn, `CCOc1cc(=O)n(C)cc1-c1nc2cnc(C3CCOCC3)cc2n1[C@@H](C)c1ccccc1` [II-44] showed an IC50 of 0.188 µM.

`Cc1cc(-c2nc3cnc(C4CCOCC4)cc3n2[C@H](C)c2ccccc2)cn(C)c1=O` [II-45] yielded a half-maximal inhibitory concentration (IC50) of 0.095 µM.

Turning to `CN1CCN(c2ccc3nc(-c4ccc(=O)n(C)c4)n(Cc4ccccc4)c3n2)CC1` [III-1, 5-[3-Benzyl-5-(4-methyl-piperazin-1-yl)-3H-imidazo[4,5-b]pyridin-2-yl]-1-methyl-1H-pyridin-2-one], inhibition was half-maximal at 0.697 µM (IC50).

Molecule `Cn1cc(-c2nc3cccnc3n2Cc2ccccc2)ccc1=O` [III-2] yielded an IC50 of 1.78 µM.

In the case of `Cc1cc(-c2nc3cccnc3n2Cc2ccccc2)cn(C)c1=O` [III-3], the 50% inhibitory concentration (IC50) worked out at 0.045 µM.

For the molecule `Cc1cc(-c2nc3ccc(OC(C)C)nc3n2[C@@H](C)c2ccccn2)nn(C)c1=O` [III-4], the 50% inhibitory concentration (IC50) was found to be 0.118 µM.

The molecule `Cc1cc(-c2nc3ccc(OC(C)C)nc3n2[C@@H](C)c2ccccc2)nn(C)c1=O` [III-5] came in with a 50% inhibitory concentration (IC50) of 0.117 µM.

The molecule `CCCOc1ccc2nc(-c3cc(C)c(=O)n(C)c3)n([C@@H](C)c3ccccc3)c2n1` [III-6] yielded a 50% inhibitory concentration (IC50) of 0.108 µM.

Molecule `Cc1cc(-c2nc3ccc(OC(C)C)nc3n2C(C)c2ccccn2)cn(C)c1=O` (stereo not drawn) [III-7] returned an IC50 of 0.22 µM. This IC50 lies about 2-fold higher than the previous one.

The molecule `Cc1cc(-c2nc3ccc(OC4CCN(C)CC4)nc3n2C(C)c2ccccn2)cn(C)c1=O` (stereo not drawn) [III-9] registered an IC50 of 0.217 µM.

Regarding `Cc1cc(-c2nc3ncccc3n2Cc2ccccc2)cn(C)c1=O` [IV-1], half-maximal inhibition (IC50) was put at 0.313 µM.

Take `CC1CC(=O)NN=C1c1ccc2c(c1)nc(-c1ccc(=O)n(C)c1)n2Cc1ccccc1` (stereo not drawn) [IV-2]: the IC50 was determined as 0.218 µM. The IC50 values of the last two molecules are within 1.5-fold of each other.

`Cc1cc(-c2nc3cc(Cl)cnc3n2Cc2ccccc2)cn(C)c1=O` [IV-3] had a half-inhibitory concentration (IC50) of 0.188 µM.

In turn, `Cc1cc(-c2nc3ccncc3n2Cc2ccccc2)cn(C)c1=O` [IV-4] came in with a half-inhibitory concentration (IC50) of 0.06 µM.

Take `Cc1cc(-c2nc3cc(N4CCOCC4)cnc3n2Cc2ccccc2)cn(C)c1=O` [IV-5]: inhibition was half-maximal at 0.032 µM (IC50).

`Cc1cc(-c2nc3cc(N4CCN(C)CC4)cnc3n2Cc2ccccc2)cn(C)c1=O` [IV-6] came in with an IC50 of 0.023 µM. The IC50 values of the last two molecules are within 1.5-fold of each other.

Molecule `Cc1cc(-c2nc3cc(C4CCOCC4)cnc3n2Cc2ccccc2)cn(C)c1=O` [IV-7] had an IC50 of 0.016 µM.

`Cc1cnc2c(c1)nc(-c1cc(C)c(=O)n(C)c1)n2Cc1ccccc1` [IV-8] displayed an IC50 of 0.07 µM.

The molecule `Cc1cc(-c2nc3cc(S(=O)(=O)N(C)C)cnc3n2Cc2ccccc2)cn(C)c1=O` [IV-9] had a half-maximal inhibitory concentration (IC50) of 0.119 µM. Against the preceding molecule, the IC50 is about 1.7-fold higher.

With `Cc1cc(-c2nc3cccc(C)c3n2Cc2ccccn2)cn(C)c1=O` [IV-10], the concentration for half-maximal inhibition (IC50) was found to be 0.109 µM.

`Cc1cc(-c2nc3cnc(N4CCOC[C@@H]4C)nc3n2[C@@H](C)c2ccccc2)cn(C)c1=O` [IV-11] yielded an IC50 of 0.012 µM.

As to `Cc1cc(-c2nc3cc(N)cnc3n2Cc2ccccc2)cn(C)c1=O` [IV-12], the half-maximal inhibitory concentration (IC50) was determined as 0.038 µM.

Molecule `Cc1cc(-c2nc3cc(Cl)c(Cl)cc3n2Cc2ccc(Cl)c(Cl)c2)cn(C)c1=O` [IV-13] returned an IC50 of 4.81 µM.

Consider `Cc1cc(-c2nc3cnc(N4CCOCC4)nc3n2Cc2ccccc2)cn(C)c1=O` [IV-14], for which the IC50 amounted to 0.05 µM.

Consider `Cc1cc(-c2nc3cnc(N4CCOCC4)nc3n2[C@@H](C)c2ccccc2)cn(C)c1=O` [IV-15], for which half-maximal inhibition (IC50) was put at 0.017 µM.

Molecule `CNc1cc(-c2nc3ccccc3n2Cc2ccccc2)cn(C)c1=O` [VI-1, 5-(1-benzyl-1H-1,3-benzodiazol-2-yl)-1-methyl-3-(methylamino)-1,2-dihydropyridin-2-one] had a half-maximal inhibitory concentration (IC50) of 0.136 µM. This IC50 lies about 8-fold higher than the previous one.
